According to patent publication US20250144067A1, “PERSONALIZED STARVATION THERAPY FOR CANCER” (Faeth Therapeutics, Inc., priority 2021, published 2025):
Structures can show the parent of a compound that is named as a salt. Where two headings read alike, the source gives them in different places.

Columns and labels:
[1] = system: NCI-H292 lung cancer cells; test: FDA drug screening, complete media vs cholesterol-free media without statin (TABLE 1); format: cell-based, human
[2] = system: NCI-H292 lung cancer cells; test: FDA drug screening, complete media vs cholesterol-free media with simvastatin (TABLE 2); format: cell-based, human
[3] = Complete minus Cholesterol-free, […]
[4] = NCI-H292 cells in cholesterol-free media without statin
[5] = NCI-H292 cells in complete media
[6] = NCI-H292 cells, cholesterol-free media with simvastatin 0.04 μM, […]
[7] = NCI-H292 cells, complete media, […]
[8] = complete media minus cholesterol-free media + simvastatin, […]
[9] = Complete minus Cholesterol-free, greater than 0 enhanced anti-cancer activity, about 0 neutral, below 0 antagonists
[10] = NCI-H292 cells, FDA drug library screen, cholesterol-free media with simvastatin 0.04 μM
[11] = NCI-H292 cells, FDA drug library screen, complete media
[12] = complete media vs cholesterol-free media + simvastatin (0.04 μM), >0 enhanced anti-cancer activity, about 0 neutral, <0 antagonist
[13] = complete media minus cholesterol-free media + simvastatin, >0 enhanced anti-cancer activity, about 0 neutral, <0 antagonist
[14] = NCI-H292 cells, cholesterol-free media without statin
[15] = complete vs cholesterol-free media, greater than 0 enhanced anti-cancer activity, about 0 neutral, below 0 antagonists
[16] = NCI-H292 cells, drug in cholesterol-free media with simvastatin 0.04 μM
[17] = NCI-H292 cells, drug in complete media
[18] = Complete minus Cholesterol-free, >0 enhanced anti-cancer activity, about 0 neutral, <0 antagonist
[19] = NCI-H292 cells, FDA library drug in cholesterol-free media with simvastatin 0.04 μM
[20] = NCI-H292 cells, FDA library drug in complete media
[21] = Complete minus Cholesterol-free, greater than 0 enhanced anti-cancer activity, about 0 neutral, below 0 antagonist
[22] = NCI-H292 cells, FDA drug library screen, cholesterol-free media without statin
[23] = NCI-H292 cells, cholesterol-free media without statin, FDA drug library screen
[24] = NCI-H292 cells, complete media, FDA drug library screen
[25] = complete vs cholesterol-free media, >0 enhanced anti-cancer activity, about 0 neutral, <0 antagonist
[26] = NCI-H292 cells, cholesterol-free media with simvastatin 0.04 μM, cell growth value in FDA drug screen
[27] = NCI-H292 cells, complete media, cell growth value in FDA drug screen
[28] = NCI-H292 cells, cholesterol-free media with simvastatin 0.04 μM, FDA drug library screen (TABLE 2)
[29] = NCI-H292 cells, complete media, FDA drug library screen (TABLE 2)
[30] = complete media minus cholesterol-free media + simvastatin (0.04 μM), >0 enhanced anti-cancer activity, about 0 neutral, <0 antagonist

Compound: C=C1CC[C@@H]2[C@](C)(COC(=O)CCC(=O)O)[C@H](OC(=O)CCC(=O)O)CC[C@@]2(C)[C@@H]1/C=C/C1=CCOC1=O [Dehydroandrographolide succinate]
- Difference [1, 3]: −1.21
- Cholesterol-free [1, 4]: 2.195
- Complete [1, 5]: 0.9855
- Cholesterol-free media + simvastatin (0.04 μM) [2, 6]: 0.8998
- Complete Media [2, 7]: 1.004
- Difference [2, 8]: 0.10

Compound: C[Se]CC[C@H](N)C(=O)O [L-SelenoMethionine]
- Difference [1, 9]: −0.92
- Cholesterol-free [1, 4]: 2.252
- Complete [1, 5]: 1.327
- Cholesterol-free media + simvastatin (0.04 μM) [2, 10]: 1.886
- Complete Media [2, 11]: 1.795
- Difference [2, 12]: −0.09

Compound: COc1ccccc1N1CCN(CCCNc2cc(=O)n(C)c(=O)n2C)CC1 [Urapidil]
- Difference [1, 9]: −0.56
- Cholesterol-free [1, 4]: 1.658
- Complete [1, 5]: 1.095
- Cholesterol-free media + simvastatin (0.04 μM) [2, 10]: 1.097
- Complete Media [2, 11]: 1.271
- Difference [2, 13]: 0.17

Compound: COc1ccccc1OCC(O)CO (stereo not drawn) [Guaifenesin]
- Cholesterol-free [1, 14]: 1.204
- Complete ([1]; NCI-H292 cells, complete media): 0.8523
- Difference [1, 15]: −0.35
- Cholesterol-free media + simvastatin (0.04 μM) [2, 10]: 1.078
- Complete Media [2, 11]: 1.326
- Difference [2, 13]: 0.25

Compound: O=C(O)P(=O)(O)O [Foscarnet (sodium)]
- Cholesterol-free [1, 14]: 1.261
- Complete ([1]; NCI-H292 cells, complete media): 0.9196
- Difference [1, 15]: −0.34
- Cholesterol-free media + simvastatin (0.04 μM) [2, 16]: 1.224
- Complete Media [2, 17]: 1.051
- Difference [2, 12]: −0.17

Compound: O=C(CCBr)N1CCN(C(=O)CCBr)CC1 [Pipobroman]
- Difference [1, 18]: −0.30
- Cholesterol-free [1, 14]: 1.38
- Complete ([1]; NCI-H292 cells, complete media): 1.078
- Cholesterol-free media + simvastatin (0.04 μM) [2, 19]: 1.384
- Complete Media [2, 20]: 1.051
- Difference [2, 12]: −0.33

Compound: O=C(CCCN1CCC(O)(c2ccc(Br)cc2)CC1)c1ccc(F)cc1 [Bromperidol]
- Difference [1, 21]: −0.13
- Cholesterol-free [1, 22]: 1.177
- Complete [1, 11]: 1.05
- Cholesterol-free media + simvastatin (0.04 μM) [2, 10]: 0.4758
- Complete Media [2, 11]: 1.318
- Difference [2, 13]: 0.84

Compound: COc1ccc(CCNCC(O)COc2cccc(C)c2)cc1OC (stereo not drawn) [Bevantolol (hydrochloride)]
- Difference [1, 9]: −0.52
- Cholesterol-free [1, 4]: 1.227
- Complete [1, 5]: 0.7079
- Cholesterol-free media + simvastatin (0.04 μM) [2, 19]: 1.404
- Complete Media [2, 20]: 0.952
- Difference [2, 12]: −0.45

Compound: C[N+]12CCC(CC1)C(OC(=O)C(O)(c1ccccc1)c1ccccc1)C2.[Br-] (stereo not drawn) [Clidinium (bromide)]
- Cholesterol-free [1]: 1.17
- Complete [1]: 1.604
- Difference [1]: 0.43
- Cholesterol-free media + simvastatin (0.04 μM) [2]: 1.456
- Complete Media [2]: 1.482
- Difference [2]: 0.03

Compound: CN(C)C(=N)N=C(N)N [Metformin (hydrochloride)]
- Cholesterol-free [1, 23]: 0.9765
- Complete [1, 24]: 1.069
- Difference [1, 25]: 0.09
- Cholesterol-free media + simvastatin (0.04 μM) [2, 26]: 0.8358
- Complete Media [2, 27]: 0.8942
- Difference [2, 13]: 0.06

Compound: CC(C)(O)CNc1nc(Nc2ccnc(C(F)(F)F)c2)nc(-c2cccc(C(F)(F)F)n2)n1 [Enasidenib]
- Difference [1, 18]: −0.30
- Cholesterol-free [1, 14]: 1.312
- Complete ([1]; NCI-H292 cells, complete media): 1.013
- Cholesterol-free media + simvastatin (0.04 μM) [2, 26]: 0.8158
- Complete Media [2, 27]: 0.8552
- Difference [2, 13]: 0.04

Compound: C[C@]12CCC(=O)C=C1CC[C@@H]1[C@@H]2C(=O)C[C@@]2(C)[C@H]1CC[C@]2(O)C(=O)CO [Cortisone]
- Difference [1, 18]: −0.30
- Cholesterol-free [1, 14]: 1.216
- Complete ([1]; NCI-H292 cells, complete media): 0.9117
- Cholesterol-free media + simvastatin (0.04 μM) [2, 10]: 1.033
- Complete Media [2, 11]: 0.8818
- Difference [2, 12]: −0.15

Compound: CCN(C(=O)c1c(O)c2c(Cl)cccc2n(C)c1=O)c1ccccc1 [Laquinimod]
- Difference [1, 21]: −0.15
- Cholesterol-free [1, 22]: 1.127
- Complete [1, 11]: 0.9797
- Cholesterol-free media + simvastatin (0.04 μM) [2, 28]: 1.3
- Complete Media [2, 29]: 1.306
- Difference [2, 30]: 0.01

Compound: C=C[C@@H]1C[C@]1(NC(=O)[C@@H]1C[C@@H]2CN1C(=O)[C@H](C(C)(C)C)NC(=O)O[C@@H]1C[C@H]1CCCCCc1nc3ccc(OC)cc3nc1O2)C(=O)NS(=O)(=O)C1CC1.O [Grazoprevir]
- Difference [1, 3]: −0.09
- Cholesterol-free [1, 22]: 1.057
- Complete [1, 11]: 0.9626
- Cholesterol-free media + simvastatin (0.04 μM) [2, 6]: 0.9215
- Complete Media [2, 7]: 0.9383
- Difference [2, 8]: 0.02

Compound: CCCC(CCC)C(=O)O [Valproic acid]
- Difference [1, 18]: −0.29
- Cholesterol-free [1, 14]: 0.957
- Complete ([1]; NCI-H292 cells, complete media): 0.6641
- Cholesterol-free media + simvastatin (0.04 μM) [2, 16]: 1.017
- Complete Media [2, 17]: 0.7948
- Difference [2, 12]: −0.22

Compound: COc1ccc([C@@H]2CC(=O)c3c(O)cc(O[C@@H]4O[C@H](CO[C@@H]5O[C@@H](C)[C@H](O)[C@@H](O)[C@H]5O)[C@@H](O)[C@H](O)[C@H]4O)cc3O2)cc1O [Hesperidin]
- Difference [1, 3]: −0.08
- Cholesterol-free [1, 22]: 1.106
- Complete [1, 11]: 1.03
- Cholesterol-free media + simvastatin (0.04 μM) [2, 10]: 1.822
- Complete Media [2, 11]: 1.671
- Difference ([2]; complete media vs cholesterol-free media + simvastatin (0.04 μM), […]): −0.15

Compound: O=C(O[C@@H]1C[C@@H]2C[C@H]3C[C@H](C1)N2CC3=O)c1c[nH]c2ccccc12 [Dolasetron]
- Cholesterol-free [1, 14]: 1.4
- Complete ([1]; NCI-H292 cells, complete media): 0.9782
- Difference [1, 15]: −0.42
- Cholesterol-free media + simvastatin (0.04 μM) [2, 26]: 0.9714
- Complete Media [2, 27]: 1.02
- Difference [2, 13]: 0.05

Compound: CCOC(=O)CC(=O)N1CCSC1COc1ccccc1OC (stereo not drawn) [Moguisteine]
- Cholesterol-free [1, 23]: 0.7084
- Complete [1, 24]: 1.262
- Difference [1, 25]: 0.55
- Cholesterol-free media + simvastatin (0.04 μM) [2, 28]: 0.9351
- Complete Media [2, 29]: 0.879
- Difference [2, 30]: −0.06

Compound: CCCCCCCCCCCCCCCC(=O)O[C@@H]1[C@@H](O)[C@@H](O)[C@@H]([C@H](NC(=O)[C@@H]2C[C@@H](CCC)CN2C)[C@H](C)Cl)O[C@@H]1SC.Cl [Clindamycin palmitate (hydrochloride)]
- Cholesterol-free [1, 23]: 0.6777
- Complete [1, 24]: 1.478
- Difference [1, 25]: 0.80
- Cholesterol-free media + simvastatin (0.04 μM) [2, 10]: 1.093
- Complete Media [2, 11]: 0.9482
- Difference [2, 12]: −0.14

Compound: Cc1cc(C)cc(OCC2CNC(=O)O2)c1 (stereo not drawn) [Metaxalone]
- Difference [1, 9]: −0.49
- Cholesterol-free [1, 4]: 1.567
- Complete [1, 5]: 1.078
- Cholesterol-free media + simvastatin (0.04 μM) [2, 19]: 1.3
- Complete Media [2, 20]: 1.014
- Difference [2, 12]: −0.29

Compound: CCO.C[C@H]1c2cccc(O)c2C(O)=C2C(=O)[C@]3(O)C(O)=C(C(N)=O)C(=O)[C@@H](N(C)C)[C@@H]3[C@@H](O)[C@@H]21.C[C@H]1c2cccc(O)c2C(O)=C2C(=O)[C@]3(O)C(O)=C(C(N)=O)C(=O)[C@@H](N(C)C)[C@@H]3[C@@H](O)[C@@H]21.Cl.Cl.O [Doxycycline (hyclate)]
- Difference [1, 21]: −0.15
- Cholesterol-free [1, 22]: 1.09
- Complete [1, 11]: 0.9355
- Cholesterol-free media + simvastatin (0.04 μM) [2, 16]: 1.074
- Complete Media [2, 17]: 0.8852
- Difference [2, 12]: −0.19
